Source: ChEMBL document CHEMBL5303304, “EUbOPEN Chemogenomics Library - IncuCyte” (2023)

How the values were obtained:
Type in all cases: toxicity, cell-based
HEK-293T = experiment: Incucyte cell viability with HEK293T; settings: human, 10 µM, compound concentration 10 uM
U2OS = experiment: Incucyte cell viability with U2OS; settings: human, 10 µM, compound concentration 10 uM
Fibroblast = experiment: Incucyte cell viability with human fibroblast; settings: 10 µM, compound concentration 10 uM
Further: unitless GR value; below 1 slowed growth and below 0 cell loss.

SMILES | Growth Rate (HEK-293T; 6 h, replicate number 1) | Growth Rate (HEK-293T; 12 h, replicate number 1) | Growth Rate (HEK-293T; 18 h, replicate number 1) | Growth Rate (U2OS; 0 h, replicate number 1) | Growth Rate (U2OS; 6 h, replicate number 1) | Growth Rate (U2OS; 12 h, replicate number 1) | Growth Rate (U2OS; 18 h, replicate number 1) | Growth Rate (U2OS; 24 h, replicate number 1) | Growth Rate (Fibroblast; 6 h, replicate number 2) | Growth Rate (Fibroblast; 12 h, replicate number 2) | Growth Rate (Fibroblast; 18 h, replicate number 1) | Growth Rate (Fibroblast; 18 h, replicate number 2) | Growth Rate (Fibroblast; 24 h, replicate number 2) | Growth Rate (HEK-293T; 12 h, replicate number 2) | Growth Rate (HEK-293T; 24 h, replicate number 1) | Growth Rate (HEK-293T; 24 h, replicate number 2) | Growth Rate (Fibroblast; 12 h, replicate number 1) | Growth Rate (HEK-293T; 6 h, replicate number 2) | Growth Rate (HEK-293T; 18 h, replicate number 2) | Growth Rate (U2OS; 24 h, replicate number 2) | also measured
CN(CC(=O)Nc1ccc(F)c(F)c1F)C(=O)c1ccc2c(c1)OCCO2 | 0.37 | 0.74 | 0.93 | -0.71 | 0.07 | 0.45 | 0.76 | 0.95 | 0.54 | 0.55 | 0.79 | 0.78 | 0.87 |  |  |  |  |  |  |  | 
O=S(=O)(Nc1ccc(C(O)(C(F)(F)F)C(F)(F)F)cc1)c1cccs1 | 0.89 |  | 0.88 | -0.75 | 0.58 | 0.46 | 0.7 | 0.8 | 0.87 |  | 0.89 | 0.93 | 0.87 | 0.89 | 0.87 | 0.9 | 0.76 |  |  |  | Growth Rate (U2OS; 0 h, replicate number 2): 0.65; Growth Rate (Fibroblast; 0 h, replicate number 2): 0.56
CN(C)C/C=C/C(=O)Nc1cccc(C(=O)Nc2ccc(Nc3nccc(-c4cccnc4)n3)cc2)c1 | -0.88 | -0.9 | -0.74 | -0.34 |  | 0.85 | 0.46 | 0.27 | 0.47 | -0.34 |  | -0.31 | -0.26 | -0.52 | -0.55 | -0.37 |  | -0.56 | -0.44 | 0.13 | Growth Rate (HEK-293T; 0 h, replicate number 2): 0.56; Growth Rate (U2OS; 12 h, replicate number 2): 0.74; Growth Rate (U2OS; 18 h, replicate number 2): 0.42; Growth Rate (Fibroblast; 0 h, replicate number 2): 0.35; Growth Rate (Fibroblast; 6 h, replicate number 1): -1
CNC(=O)c1c[nH]c2ccc(Nc3nccc(-c4ccccn4)n3)cc12 | 0.28 | 0.33 | 0.33 | 0.13 |  |  | 0.95 |  | 0.18 | 0.41 |  | 0.6 | 0.75 | 0.1 | 0.39 | 0.17 | 0.8 | 0.09 | 0.14 | 0.94 | Growth Rate (Fibroblast; 0 h, replicate number 1): -1
C/C=C1\C(=O)CC2C3CCC4=CC(=O)CC[C@]4(C)C3CC[C@]12C (stereo not given in full) | 0.43 | 0.69 | 0.83 | 0.15 | 0.52 | 0.73 | 0.92 |  | 0.33 | 0.88 | 0.64 | 0.96 | 0.9 | 0.92 | 0.84 |  | 0.83 | 0.44 |  |  | Growth Rate (Fibroblast; 6 h, replicate number 1): -0.19; Growth Rate (Fibroblast; 24 h, replicate number 1): 0.81
CCn1ccc(Nc2ncc3c(n2)-c2c(nn(C)c2-c2ccc(-c4cnn(C)c4)cc2Cl)CC3)n1 | -0.49 | -0.39 | -0.28 | -1 |  |  | 0.27 | 0.21 |  | 0.65 | 0.32 | 0.5 | 0.19 | -0.54 | -0.24 | -0.33 | 0.87 | -0.71 | -0.43 | -0.03 | Growth Rate (U2OS; 6 h, replicate number 2): 0.57; Growth Rate (U2OS; 12 h, replicate number 2): 0.22; Growth Rate (U2OS; 18 h, replicate number 2): 0.13; Growth Rate (Fibroblast; 0 h, replicate number 1): -1; Growth Rate (Fibroblast; 6 h, replicate number 1): 0.64; Growth Rate (Fibroblast; 24 h, replicate number 1): 0.46
